Results from patent US20250353842A1, “BICYCLIC AMINE CDK12 INHIBITORS” (Incyte Corporation, priority 2022, published 2025).

Molecular target: CDK12 complexed with Cyclin K (Homo sapiens (Human), UniProt Q9NYV4)
Assay: CDK enzymatic assay (HTRF, LANCE Ultra kinase assay)
Assay type: biochemical
Conditions: 60 minutes pre-incubation, 1 mM ATP
How it was run: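 GST-tagged human CDK12 co-expressed with full-length Cyclin K in baculovirus, pre-incubated 60 min with compound, then 1 mM ATP and 50 nM ULight-4E-BP1 peptide (final) in pH 7.5 HEPES buffer for 60-90 min at room temperature. EDTA/Eu-anti-phospho-4E-BP1 stop; 665/620 nm HTRF ratio normalized to DMSO and no-enzyme controls, IC50 from 3- or 4-parameter fit.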

Chain of CDK12 complexed with Cyclin K (Q9NYV4 whole entry): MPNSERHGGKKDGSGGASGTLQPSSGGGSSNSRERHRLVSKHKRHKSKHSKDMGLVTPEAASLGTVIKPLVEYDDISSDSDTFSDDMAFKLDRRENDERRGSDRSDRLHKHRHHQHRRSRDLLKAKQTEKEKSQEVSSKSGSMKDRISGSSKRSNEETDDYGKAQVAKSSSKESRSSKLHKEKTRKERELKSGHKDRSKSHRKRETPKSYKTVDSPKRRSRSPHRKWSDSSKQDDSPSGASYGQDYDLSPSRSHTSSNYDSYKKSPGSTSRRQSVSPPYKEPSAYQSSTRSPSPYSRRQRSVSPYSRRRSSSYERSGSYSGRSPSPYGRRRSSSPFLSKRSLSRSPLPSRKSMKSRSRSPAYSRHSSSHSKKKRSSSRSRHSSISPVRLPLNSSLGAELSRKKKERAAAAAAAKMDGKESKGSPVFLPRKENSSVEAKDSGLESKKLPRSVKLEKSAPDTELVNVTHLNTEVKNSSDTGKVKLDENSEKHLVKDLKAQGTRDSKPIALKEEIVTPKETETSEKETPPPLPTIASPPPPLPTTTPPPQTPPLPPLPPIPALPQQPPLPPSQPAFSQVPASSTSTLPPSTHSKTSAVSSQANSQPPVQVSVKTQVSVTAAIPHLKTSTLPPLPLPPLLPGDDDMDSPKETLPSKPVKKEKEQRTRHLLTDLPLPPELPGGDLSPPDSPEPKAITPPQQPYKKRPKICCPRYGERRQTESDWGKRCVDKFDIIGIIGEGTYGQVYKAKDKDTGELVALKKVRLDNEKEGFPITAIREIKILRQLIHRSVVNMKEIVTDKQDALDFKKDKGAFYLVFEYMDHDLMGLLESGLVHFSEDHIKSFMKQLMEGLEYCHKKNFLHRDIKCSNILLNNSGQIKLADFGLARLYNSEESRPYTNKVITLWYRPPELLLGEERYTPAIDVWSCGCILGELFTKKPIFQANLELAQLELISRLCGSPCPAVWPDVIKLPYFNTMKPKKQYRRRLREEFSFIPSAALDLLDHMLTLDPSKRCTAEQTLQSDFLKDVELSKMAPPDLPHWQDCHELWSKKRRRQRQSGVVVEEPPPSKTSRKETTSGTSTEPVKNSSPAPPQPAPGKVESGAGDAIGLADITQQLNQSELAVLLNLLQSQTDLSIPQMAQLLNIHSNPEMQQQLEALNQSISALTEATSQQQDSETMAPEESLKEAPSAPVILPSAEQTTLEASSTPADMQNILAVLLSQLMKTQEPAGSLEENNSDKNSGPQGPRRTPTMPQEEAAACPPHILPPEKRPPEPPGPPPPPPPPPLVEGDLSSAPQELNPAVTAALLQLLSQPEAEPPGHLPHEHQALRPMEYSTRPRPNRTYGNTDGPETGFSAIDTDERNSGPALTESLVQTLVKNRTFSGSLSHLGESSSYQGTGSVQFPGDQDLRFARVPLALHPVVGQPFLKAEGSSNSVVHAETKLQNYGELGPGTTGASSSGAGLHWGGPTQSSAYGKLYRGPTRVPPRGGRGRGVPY
Chain of CDK12 complexed with Cyclin K (O75909 whole entry partner): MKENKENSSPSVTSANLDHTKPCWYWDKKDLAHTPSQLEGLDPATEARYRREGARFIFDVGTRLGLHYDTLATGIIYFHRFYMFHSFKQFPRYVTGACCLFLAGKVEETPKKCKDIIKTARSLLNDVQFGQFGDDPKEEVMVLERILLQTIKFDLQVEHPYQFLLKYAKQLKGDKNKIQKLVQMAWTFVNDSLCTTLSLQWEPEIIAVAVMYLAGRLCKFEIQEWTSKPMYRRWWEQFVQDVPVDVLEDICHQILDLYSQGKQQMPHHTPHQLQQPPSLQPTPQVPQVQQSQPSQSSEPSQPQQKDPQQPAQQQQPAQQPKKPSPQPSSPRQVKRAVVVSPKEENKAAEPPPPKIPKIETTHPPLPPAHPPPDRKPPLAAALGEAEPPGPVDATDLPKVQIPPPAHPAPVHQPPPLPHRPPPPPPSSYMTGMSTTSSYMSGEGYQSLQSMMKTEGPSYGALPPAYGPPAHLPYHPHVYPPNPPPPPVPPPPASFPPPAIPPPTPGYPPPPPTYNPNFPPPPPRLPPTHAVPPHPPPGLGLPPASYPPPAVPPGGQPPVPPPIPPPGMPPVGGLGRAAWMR

IC50, < 50 nM:
CN(C)c1cnc2c(c1)ncn2[C@H]1CCC[C@@H](Nc2ncc(C(F)(F)F)c(-c3cnn(CC(F)F)c3)n2)C1 [Example 84, 3-((1S,3R)-3-((4-(1-(2,2-Difluoroethyl)-1H-pyrazol-4-yl)-5-(trifluoromethyl)pyrimidin-2-yl)amino)cyclohexyl)-N,N-dimethyl-3H-imidazo[4,5-b]pyridin-6-amine]
Cc1nccc2c1ncn2[C@H]1CCC[C@@H](Nc2ncc(C#N)c(-c3cnn(CC(F)F)c3)n2)C1 [Example 85, 4-(1-(2,2-Difluoroethyl)-1H-pyrazol-4-yl)-2-(((1R,3S)-3-(4-methyl-1H-imidazo[4,5-c]pyridin-1-yl)cyclohexyl)amino)pyrimidine-5-carbonitrile]
N#Cc1ccc2c(c1)ncn2[C@H]1CCC[C@@H](Nc2ncc(C#N)c(-c3cnn(CC(F)F)c3)n2)C1 [Example 86, 1-((1S,3R)-3-((5-Cyano-4-(1-(2,2-difluoroethyl)-1H-pyrazol-4-yl)pyrimidin-2-yl)amino)cyclohexyl)-1H-benzo[d]imidazole-5-carbonitrile]
N#Cc1cccc2ncn([C@H]3CCC[C@@H](Nc4ncc(C(F)(F)F)c(-c5cnn(CC(F)F)c5)n4)C3)c12 [Example 87, 1-((1S,3R)-3-((4-(1-(2,2-Difluoroethyl)-1H-pyrazol-4-yl)-5-(trifluoromethyl)pyrimidin-2-yl)amino)cyclohexyl)-1H-benzo[d]imidazole-7-carbonitrile]
N#Cc1cc2ncn([C@H]3CCC[C@@H](Nc4ncc(C#N)c(-c5cnn(CC(F)F)c5)n4)C3)c2cn1 [Example 88, 3-((1S,3R)-3-((5-Cyano-4-(1-(2,2-difluoroethyl)-1H-pyrazol-4-yl)pyrimidin-2-yl)amino)cyclohexyl)-3H-imidazo[4,5-c]pyridine-6-carbonitrile]
Cc1c(-c2nc(N[C@@H]3CCC[C@H](n4cnc5cc(C#N)cnc54)C3)ncc2C#N)cnn1C [Example 89, 3-((1S,3R)-3-((5-Cyano-4-(1,5-dimethyl-1H-pyrazol-4-yl)pyrimidin-2-yl)amino)cyclohexyl)-3H-imidazo[4,5-b]pyridine-6-carbonitrile]
